Literature values in US9949922B2, “Silica hydrogel composite” (DELSITECH OY, priority 2013, dated 2018).

Conditions: nimodipine value from DrugBank

Water solubility: 800 µg/mL
SMILES: O=C1OC2(c3ccc(O)cc3Oc3cc(O)ccc32)c2ccccc21 [Fluorescein]
